Among the data in US20090069408A1, “TRICYCLIC COMPOUNDS USEFUL IN TREATING IRON DISORDERS” (XENON PHARMACEUTICALS INC., priority 2007, published 2009) are IC50 values, retold here.

Counter-ions that a name gives are not always drawn.

The experiment concerns the target T1, DMT1 (Homo sapiens, UniProt P49281).
T1 sequence (P49281 1-568): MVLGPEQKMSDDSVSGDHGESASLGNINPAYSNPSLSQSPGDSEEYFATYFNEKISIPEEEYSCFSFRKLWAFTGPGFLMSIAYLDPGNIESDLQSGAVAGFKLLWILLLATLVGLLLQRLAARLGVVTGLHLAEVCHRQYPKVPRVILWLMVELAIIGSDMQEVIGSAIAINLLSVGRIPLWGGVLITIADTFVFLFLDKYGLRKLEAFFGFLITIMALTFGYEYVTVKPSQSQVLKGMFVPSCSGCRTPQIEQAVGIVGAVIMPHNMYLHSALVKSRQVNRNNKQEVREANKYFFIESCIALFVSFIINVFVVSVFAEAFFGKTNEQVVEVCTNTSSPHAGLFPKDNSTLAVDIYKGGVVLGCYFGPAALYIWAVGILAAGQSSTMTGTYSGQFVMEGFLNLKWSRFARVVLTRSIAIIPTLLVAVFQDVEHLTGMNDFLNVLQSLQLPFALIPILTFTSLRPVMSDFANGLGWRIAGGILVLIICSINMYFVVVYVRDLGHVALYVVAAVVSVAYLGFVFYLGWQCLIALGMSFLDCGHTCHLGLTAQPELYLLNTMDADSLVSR
Description: DMT1 Activity Assay (in vitro). As to conditions: read-out: IC50 Activity Level. It is filed as cell-based. From the text: In particular, identification of the compounds of the invention ability to modulate, preferably to inhibit, DMT1 activity, can be assessed using a variety of in vitro and in vivo assays, for measuring uptake of reduced iron (Fe^2+). One such protocol involves the screening of chemical agents for ability to modulate the activity of DMT1 thereby identifying it as a modulating agent. The in vitro activity of DMT1 can be measured in cell based assays by either directly measuring iron flux (using a radioactively labelled iron ^55Fe) or by measuring the fluorescence of a cell permeable iron fluorophore such as calcein. Stable cell lines overexpressing DMT1 are exposed to ^55Fe or loaded with calcein and then compound is applied. […] Alternatively, in another format electrophysiological techniques can be used to measure the current or iron or other metals traversing the cell membrane with DMT1 in a Xenopus oocyte or other cell based system (Gunshin et al., Nature, 1997, 31; 388(6641):482-8).
This example discloses various in vitro assay for testing and profiling test agents against DMT1 stably expressed in cells of either an endogenous or recombinant origin. These assays can use stable cell lines overexpressing DMT1 or intestinal cells and intestinal tissue expressing endogenous DMT1. DMT1 function could also be assessed in other cell types that express DMT1. Of greatest relevance would be the erythrocytes (e.g. K562 cells) or hepatocytes (e.g. […]).
DMT1 function can be assessed in a number of ways, including monitoring fluorescence changes of an iron fluorophore (e.g. calcein), monitoring uptake of radiolabelled iron (^55Fe or ^59Fe) (Picard et al., J. Biol. Chem., 2000, 275(46):35738-45 and Wetli et al., Chem. Biol. 2006 September; 13(9):965-72), or by assessing the current or transport of iron and other metals into the cells or tissues using standard electrophysiological techniques (Gunshin et al., Nature, 1997, 388(6641):482-8.).
Variations of these assays involve alterations of incubation times, the iron status of the cells and tissues (which may be modulated by chemical chelators or by harvesting from iron deficient animals), the metal cation detected and the pH of the reaction can generally be made by conventional techniques known to those skilled in the art.
Usually IC50 stands for the concentration at which inhibition is half-maximal. Turning to `Cc1c2cccc(CSC(=N)N)c2nc2c(CSC(=N)N)cccc12` [Example 1.17, (9-methylacridine-4,5-diyl)bis(methylene) dicarbamimidothioate dihydrobromide], the IC50 was no less than 1 µM.

Consider `N=C(N)SCc1ccc(CSC(=N)N)c2c1-c1c(CSC(=N)N)ccc(CSC(=N)N)c1-2` [Example 3, biphenylene-1,4,5,8-tetrayltetrakis(methylene) tetracarbamimidothioate tetrahydrobromide], for which the IC50 lay in the range of 0.1 to 1 µM.

As for `N=C(N)SCc1c(Br)ccc2c1sc1c(CSC(=N)N)c(Br)ccc12` [Example 1.1, (3,7-dibromodibenzo[b,d]thiophene-4,6-diyl)bis(methylene) dicarbamimidothioate dihydrobromide], the IC50 is 0.1 to 1 µM.

Consider `N=C(N)SCc1cccc2c1oc1c(CSC(=N)N)cccc12` [Example 1.8, dibenzo[b,d]furan-4,6-diylbis(methylene) dicarbamimidothioate dihydrobromide], for which the half-inhibitory concentration (IC50) fell in the range of 0.01 to 0.1 µM.

As for `N=C(N)SCc1cccc2c1C(=O)c1c(CSC(=N)N)cccc1-2` [Example 2, (9-oxo-9H-fluorene-1,8-diyl)bis(methylene) dicarbamimidothioate dihydrobromide], the IC50 was 0.1 to 1 µM.

In the case of `N=C(N)SCc1c(Br)ccc2c1oc1c(CSC(=N)N)c(Br)ccc12` [Example 1.13, (3,7-dibromodibenzo[b,d]furan-4,6-diyl)bis(methylene) dicarbamimidothioate dihydrobromide], the IC50 was 0.1 to 1 µM.

As to `N=C(N)SCc1cccc2c1-c1c(cccc1CSC(=N)N)CSC2` [Example 1.19, (5,7-dihydrodibenzo[c,e]thiepine-1,11-diyl)bis(methylene) dicarbamimidothioate dihydrobromide], the IC50 is no less than 1 µM.

Regarding `N=C(N)SCc1c(F)ccc2c1oc1c(CSC(=N)N)c(F)ccc12` [Example 1.4, (3,7-difluorodibenzo[b,d]furan-4,6-diyl)bis(methylene) dicarbamimidothioate dihydrobromide], the IC50 lay within 0.01 to 0.1 µM.

For `N=C(N)SCc1cccc2c1oc1c(CSC(=N)N)cc(F)cc12` [Example 1.6, (2-fluorodibenzo[b,d]furan-4,6-diyl)bis(methylene) dicarbamimidothioate dihydrobromide], the IC50 lay in the range of 0.01 to 0.1 µM.

Take `N=C(N)SCc1cccc2cc3cccc(CSC(=N)N)c3cc12` [Example 1.9, anthracene-1,8-diylbis(methylene) dicarbamimidothioate dihydrobromide]: the IC50 lay within 0.1 to 1 µM.

Take `N=C(N)SCc1cc(Br)cc2c1oc1c(CSC(=N)N)cc(Br)cc12` [Example 1.7, (2,8-dibromodibenzo[b,d]furan-4,6-diyl)bis(methylene) dicarbamimidothioate dihydrobromide]: the IC50 was 0.01 to 0.1 µM.

Regarding `N=C(N)SCc1cccc2cc3cccc(CSC(=N)N)c3nc12` [Example 1.18, acridine-4,5-diylbis(methylene) dicarbamimidothioate dihydrobromide], the IC50 lay within 0.1 to 1 µM.

Turning to `N=C(N)SCc1cccc2sc3cccc(CSC(=N)N)c3c12` [Example 1.14, dibenzo[b,d]thiophene-1,9-diylbis(methylene) dicarbamimidothioate dihydrobromide], the IC50 is no less than 1 µM.

For `N=C(N)SCc1cccc2c1-c1c(CSC(=N)N)cccc1-2` [Example 2.1, biphenylene-1,8-diylbis(methylene)dicarbamimidothioate dihydrobromide], the concentration for half-maximal inhibition (IC50) lay in the range of 0.01 to 0.1 µM.

Take `N=C(N)SCc1cccc2c1sc1c(CSC(=N)N)cc(F)cc12` [Example 1.10, (2-fluorodibenzo[b,d]thiophene-4,6-diyl)bis(methylene) dicarbamimidothioate dihydrobromide]: the concentration for half-maximal inhibition (IC50) was 0.1 to 1 µM.

In the case of `N=C(N)SCc1c(Cl)ccc2c1oc1c(CSC(=N)N)c(Cl)ccc12` [Example 1.5, (3,7-dichlorodibenzo[b,d]furan-4,6-diyl)bis(methylene) dicarbamimidothioate], the IC50 lay within 0.1 to 1 µM.
